Measurements published in the supplement of paper PMC10307832.

How the values were obtained:
Experiment in all cases: relative viability (nuclei count vs DMSO), 5 days (fraction); higher = more cells survive
XMD8-85 + Bortezomib = compound: CN1CCN(CC1)C2=CC(=C(C=C2)NC3=NC=C4C(=N3)N(C5=CC=CC=C5C(=O)N4C)C)OC [XMD8-85] + CC(C)C[C@H](NC(=O)[C@H](Cc1ccccc1)NC(=O)c1cnccn1)B(O)O [Bortezomib] (partner 0.002 µM)
Outline: (§1)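 Relative viability divides the nuclei count in treated wells by that in vehicle wells. Lung cancer cell lines were seeded in 1536-well plates, dosed by pin tool the next day, and fixed and stained after 5 days in one step with final 0.05% Triton X-100, 1% formaldehyde and 1 ug/ml Hoechst. Dosing was a single drug or a fixed anchor-drug dose plus five library-drug doses (not always all listed) in √10 steps, and values are medians of duplicate plates imaged at 4×.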

XMD8-85 + Lapatinib = compound: CN1CCN(CC1)C2=CC(=C(C=C2)NC3=NC=C4C(=N3)N(C5=CC=CC=C5C(=O)N4C)C)OC [XMD8-85] + CS(=O)(=O)CCNCc1ccc(-c2ccc3ncnc(Nc4ccc(OCc5cccc(F)c5)c(Cl)c4)c3c2)o1 [Lapatinib] (partner 2 µM)
Outline: as §1

XMD8-85 + Tozasertib = compound: CN1CCN(CC1)C2=CC(=C(C=C2)NC3=NC=C4C(=N3)N(C5=CC=CC=C5C(=O)N4C)C)OC [XMD8-85] + Cc1cc(Nc2cc(N3CCN(C)CC3)nc(Sc3ccc(NC(=O)C4CC4)cc3)n2)n[nH]1 [Tozasertib] (partner 0.1 µM)
Outline: as §1

XMD8-85 + Olaparib = compound: CN1CCN(CC1)C2=CC(=C(C=C2)NC3=NC=C4C(=N3)N(C5=CC=CC=C5C(=O)N4C)C)OC [XMD8-85] + O=C(c1cc(Cc2n[nH]c(=O)c3ccccc23)ccc1F)N1CCN(C(=O)C2CC2)CC1 [Olaparib] (partner 8 µM)
Outline: as §1

Row | Cell Line | relative viability (XMD8-85 + Bortezomib; first compound 0.08 µM) | relative viability (XMD8-85 + Bortezomib; first compound 0.253 µM) | relative viability (XMD8-85 + Bortezomib; first compound 0.8 µM) | relative viability (XMD8-85 + Bortezomib; first compound 2.53 µM) | relative viability (XMD8-85 + Bortezomib; first compound 8 µM) | relative viability (XMD8-85 + Lapatinib; first compound 0.08 µM) | relative viability (XMD8-85 + Lapatinib; first compound 0.253 µM) | relative viability (XMD8-85 + Lapatinib; first compound 0.8 µM) | relative viability (XMD8-85 + Lapatinib; first compound 2.53 µM) | relative viability (XMD8-85 + Lapatinib; first compound 8 µM) | relative viability (XMD8-85 + Tozasertib; first compound 0.08 µM) | relative viability (XMD8-85 + Tozasertib; first compound 0.253 µM) | relative viability (XMD8-85 + Tozasertib; first compound 2.53 µM) | relative viability (XMD8-85 + Tozasertib; first compound 8 µM) | relative viability (XMD8-85 + Olaparib; first compound 0.08 µM) | relative viability (XMD8-85 + Olaparib; first compound 0.253 µM) | relative viability (XMD8-85 + Olaparib; first compound 0.8 µM) | relative viability (XMD8-85 + Olaparib; first compound 2.53 µM) | relative viability (XMD8-85 + Olaparib; first compound 8 µM) | relative viability (XMD8-85 + Tozasertib; first compound 0.8 µM)
1 | 201T | 1.08 | 1.06 | 1.1 | 1.07 | 0.917 | 1.07 | 1.01 | 1.02 | 1 | 0.828 | 0.964 | 0.975 | 0.808 | 0.771 | 0.889 | 0.811 | 0.886 | 0.866 | 0.73 | 
2 | A549 |  |  |  |  |  | 1.08 | 0.974 | 1.06 | 1.03 | 0.869 |  |  |  |  | 0.192 | 0.371 | 0.306 | 0.234 | 0.227 | 
3 | A-427 | 1.04 | 1.05 | 0.948 | 1.18 | 0.893 | 1.05 | 0.994 | 1.09 | 1.1 | 0.937 | 0.193 | 0.225 | 0.185 | 0.186 | 0.751 | 0.781 | 0.864 | 0.785 | 0.57 | 0.203
4 | ABC-1 | 0.246 | 0.254 | 0.302 | 0.252 | 0.22 | 1.32 | 1.18 | 0.942 | 1.21 | 1.11 | 0.142 | 0.159 | 0.15 | 0.231 | 0.919 | 0.864 | 0.781 | 0.764 | 0.795 | 0.19
5 | BEN | 0.795 | 0.808 | 0.839 | 0.549 | 0.416 | 0.86 |  | 0.571 | 0.487 | 0.334 | 0.467 |  | 0.331 | 0.457 | 0.952 | 1.05 | 0.947 | 0.887 | 0.613 | 0.426
6 | CAL-12T | 0.979 | 0.95 | 0.864 | 0.964 | 0.584 | 0.626 |  | 0.679 | 0.678 | 0.604 | 0.287 | 0.348 | 0.259 | 0.214 | 0.704 | 0.721 | 0.776 | 0.628 | 0.583 | 0.296
7 | COR-L23 | 1.05 | 0.962 | 1.17 | 0.957 | 0.691 | 0.896 | 1.09 | 1.11 | 1.08 | 0.913 | 0.222 | 0.216 | 0.163 | 0.144 | 0.369 | 0.319 | 0.421 | 0.302 | 0.236 | 0.197
8 | COR-L 105 | 0.759 | 0.628 | 0.699 | 0.677 | 0.309 | 0.366 | 0.341 | 0.407 | 0.342 | 0.348 | 0.405 | 0.363 | 0.377 | 0.26 | 0.7 |  | 0.692 | 0.58 | 0.455 | 0.338
9 | Calu-6 | 1.16 | 0.973 | 1.04 | 1.05 | 0.78 | 1.02 | 1.09 | 1.11 | 1.03 | 0.899 |  |  |  |  | 0.621 | 0.574 | 0.596 | 0.558 | 0.395 | 
